Assay results taken from patent US7361676B2, “Solid preparation containing single crystal form” (Teijin Limited, priority 2002, dated 2008).

Assays:
[1] = Intrinsic dissolution rate (USP 24 <1087>); assay type: physicochemical; settings: pellets, second fluid of the disintegration test of Japanese Pharmacopoeia, 50 rpm
Protocol: The dissolution rate was measured according to USP 24, <1087>Intrinsic Dissolution. Specifically, the measurement was carried out as follows:
50 mg each of crystals powdered lightly in an agate mortar was set between plates, and a pressure of 754 kgf/cm^2 was applied thereto for one minute to produce pellets. As the testing solution, 900 mL of the second fluid of the disintegration test of Japanese Pharmacopoeia was used and the test was carried out at 50 rpm using the dissolution apparatus produced by Vankel. Subsequently, the testing liquid was filtered through a filter and the resultant, used as the sample solution, was tested with respect to a standard solution by a spectrophotometry (wavelength of 317 nm). The results are shown in Table 2, in which the order of the dissolution rate of the six crystals is as follows: E>A>B>D>G>C.

[2] = Physical stability of drug substance crystals at 40° C./75% RH (HPLC degradant, XRD/TG transformation); assay type: physicochemical; settings: for Transformation of crystal form on storage: 40° C./75% RH, storage for three months
Protocol: Each of the drug substances (crystals A, B, C, D, E and G) of 2-(3-cyano-4-isobutyloxyphenyl)-4-methyl-5-thiazolecarboxylic acid was tested in bottles with and without closure under the conditions of 40° C./75% RH. Any degradant was detected by a HPLC. Their transformation was detected by an X-ray powder diffraction pattern and by a thermal mass measurement method, and the 50% transform time was determined. There was no degradant for all of the six crystal forms.
For the above HPLC, Model 2690 produced by Waters was adopted, using an ODS column with a measured wave length of 217 nm at a predetermined temperature around 40° C.
For the above X-ray powder diffraction, Model XRD-6000 of Shimadzu Corp. was used.
For the above heat mass measurement, Model TGA7, Pyris1 produced by Perkin Elmer was used at a temperature rising speed of 40° C./min.

[3] = as described in WO99/65885; cited from earlier work
[4] = Pulverized particle size by image analysis; assay type: physicochemical
Protocol: Plain tablets were prepared by the method same as that of Example 1 except that particles (Particles 1˜4) shown in Table 7, with crystal A and with four different kinds of average particle sizes, were used as 2-(3-cyano-4-isobutyloxyphenyl)-4-methyl-5-thiazolecarboxylic acid. The obtained plain tablets were coated with coating liquid comprising purified water, polyethylene glycol and hydroxypropylmethyl cellulose by a coating machine (High Coater HCT-30, Freund Ind.).

xanthine oxidase = xanthine oxidase (Homo sapiens, UniProt P47989); settings: as described in WO92/09279; cited from earlier work
Chain of xanthine oxidase (P47989 whole entry, species assumed): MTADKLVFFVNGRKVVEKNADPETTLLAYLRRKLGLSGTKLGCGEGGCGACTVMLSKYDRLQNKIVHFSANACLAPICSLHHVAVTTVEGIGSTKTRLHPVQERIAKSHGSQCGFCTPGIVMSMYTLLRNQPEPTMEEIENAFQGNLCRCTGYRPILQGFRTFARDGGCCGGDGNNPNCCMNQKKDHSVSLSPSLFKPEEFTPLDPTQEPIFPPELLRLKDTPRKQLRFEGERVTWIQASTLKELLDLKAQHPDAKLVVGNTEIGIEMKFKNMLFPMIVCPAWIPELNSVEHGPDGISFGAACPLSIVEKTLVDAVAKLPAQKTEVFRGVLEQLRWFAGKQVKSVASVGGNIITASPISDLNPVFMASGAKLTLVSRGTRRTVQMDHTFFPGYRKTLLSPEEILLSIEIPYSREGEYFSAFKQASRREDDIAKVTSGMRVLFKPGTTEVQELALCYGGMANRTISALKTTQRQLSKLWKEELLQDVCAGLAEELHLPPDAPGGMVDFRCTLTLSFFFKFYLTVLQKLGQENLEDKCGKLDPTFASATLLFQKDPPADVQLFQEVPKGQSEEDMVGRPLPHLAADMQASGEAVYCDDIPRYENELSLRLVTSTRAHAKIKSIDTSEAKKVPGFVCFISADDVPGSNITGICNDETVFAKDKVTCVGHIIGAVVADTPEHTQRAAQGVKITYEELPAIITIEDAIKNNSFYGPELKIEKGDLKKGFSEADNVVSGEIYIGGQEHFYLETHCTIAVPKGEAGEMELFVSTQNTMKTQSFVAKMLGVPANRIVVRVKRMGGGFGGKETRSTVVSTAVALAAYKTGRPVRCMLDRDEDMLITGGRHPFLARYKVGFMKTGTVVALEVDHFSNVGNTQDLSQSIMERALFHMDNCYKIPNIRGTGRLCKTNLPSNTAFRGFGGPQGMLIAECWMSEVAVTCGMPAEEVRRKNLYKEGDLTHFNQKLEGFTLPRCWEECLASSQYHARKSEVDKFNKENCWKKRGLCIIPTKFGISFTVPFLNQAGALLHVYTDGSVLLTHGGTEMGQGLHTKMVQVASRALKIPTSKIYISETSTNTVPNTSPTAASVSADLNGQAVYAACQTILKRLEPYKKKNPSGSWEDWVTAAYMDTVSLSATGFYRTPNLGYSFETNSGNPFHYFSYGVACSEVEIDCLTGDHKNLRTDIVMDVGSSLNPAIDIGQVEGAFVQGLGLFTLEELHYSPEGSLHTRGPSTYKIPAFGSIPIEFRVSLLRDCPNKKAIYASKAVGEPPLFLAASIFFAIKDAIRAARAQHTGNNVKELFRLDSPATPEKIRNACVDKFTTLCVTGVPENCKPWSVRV

[5] = 40° C./75% RH with closure, analysis XRD or TG
[6] = 40° C./75% RH without closure, analysis XRD or TG

SMILES | Intrinsic rate [1] [mg/cm^2/min] | 50% Transform time [2, 5] | 50% Transform time [2, 6] | Transformation of crystal form on storage [2] | Retention of a crystal form in long term storage [3] | Pulverized particle size, 95% cumulative diameter [4] [μm] | Pulverized particle size, average particle diameter [4] [μm] | Activity for inhibiting xanthine oxidase (xanthine oxidase) | 50% Transform time ([2]; 40° C./75% RH without closure, analysis XRD) [days]
Cc1nc(-c2ccc(OCC(C)C)c(C#N)c2)sc1C(=O)O [Crystal D, 2-(3-cyano-4-isobutyloxyphenyl)-4-methyl-5-thiazolecarboxylic acid] | 0.1092 | 17 days | 0.0104 days | transformation of crystals B, D and E was detected | – | – | – | – | –
Cc1nc(-c2ccc(OCC(C)C)c(C#N)c2)sc1C(=O)O [Crystal C, 2-(3-cyano-4-isobutyloxyphenyl)-4-methyl-5-thiazolecarboxylic acid] | 0.0694 | (Not changed) | (Not changed) | stable | useful in view of retention of a crystal form in long term storage | – | – | – | –
Cc1nc(-c2ccc(OCC(C)C)c(C#N)c2)sc1C(=O)O [Particle 2, 2-(3-cyano-4-isobutyloxyphenyl)-4-methyl-5-thiazolecarboxylic acid] | – | – | – | – | – | 29.5 | 12.9 | – | –
Cc1nc(-c2ccc(OCC(C)C)c(C#N)c2)sc1C(=O)O [Particle 1, 2-(3-cyano-4-isobutyloxyphenyl)-4-methyl-5-thiazolecarboxylic acid] | – | – | – | – | – | 5.6 | 3.5 | – | –
Cc1nc(-c2ccc(OCC(C)C)c(C#N)c2)sc1C(=O)O [2-(3-cyano-4-isobutyloxyphenyl)-4-methyl-5-thiazolecarboxylic acid] | – | – | – | – | – | – | – | strong activity | –
Cc1nc(-c2ccc(OCC(C)C)c(C#N)c2)sc1C(=O)O [Crystal B, 2-(3-cyano-4-isobutyloxyphenyl)-4-methyl-5-thiazolecarboxylic acid] | 0.1242 | 5 days | 0.583 days | transformation of crystals B, D and E was detected | – | – | – | – | –
Cc1nc(-c2ccc(OCC(C)C)c(C#N)c2)sc1C(=O)O [Crystal G, 2-(3-cyano-4-isobutyloxyphenyl)-4-methyl-5-thiazolecarboxylic acid] | 0.0967 | (Not changed) | (Not changed) | stable | useful in view of retention of a crystal form in long term storage | – | – | – | –
Cc1nc(-c2ccc(OCC(C)C)c(C#N)c2)sc1C(=O)O [Particle 4, 2-(3-cyano-4-isobutyloxyphenyl)-4-methyl-5-thiazolecarboxylic acid] | – | – | – | – | – | 140.8 | 48.6 | – | –
Cc1nc(-c2ccc(OCC(C)C)c(C#N)c2)sc1C(=O)O [Crystal E, 2-(3-cyano-4-isobutyloxyphenyl)-4-methyl-5-thiazolecarboxylic acid] | 0.1874 | 55 days | – | transformation of crystals B, D and E was detected | – | – | – | – | 19
Cc1nc(-c2ccc(OCC(C)C)c(C#N)c2)sc1C(=O)O [Crystal A, 2-(3-cyano-4-isobutyloxyphenyl)-4-methyl-5-thiazolecarboxylic acid] | 0.1434 | (Not changed) | (Not changed) | stable | useful in view of retention of a crystal form in long term storage | – | – | – | –
Cc1nc(-c2ccc(OCC(C)C)c(C#N)c2)sc1C(=O)O [Particle 3, 2-(3-cyano-4-isobutyloxyphenyl)-4-methyl-5-thiazolecarboxylic acid] | – | – | – | – | – | 74.7 | 26.2 | – | –
